Measurements reported in US20260184748A1, “COMPOSITIONS COMPRISING OCTADECANEUROPEPTIDES (ODN) AND SYNTHETIC DERIVATIVES THEREOF AND METHODS OF USE FOR MODULATION OF FOOD INTAKE, OBESITY, BODY WEIGHT, NAUSEA, AND EMESIS” (The Trustees of the University of Pennsylvania, priority 2022, published 2026).
Where no end group is shown, it is not given here.

Assays:
Assay in all cases: Arrestin agonist mode
Format in all cases: cell-based
EBI2 = EBI2 (Homo sapiens, UniProt P32249)
FFAR1 = FFAR1 (Homo sapiens, UniProt O14842); settings: read-out: RC50 (the source's name)
FFAR1, sequence (O14842 whole entry): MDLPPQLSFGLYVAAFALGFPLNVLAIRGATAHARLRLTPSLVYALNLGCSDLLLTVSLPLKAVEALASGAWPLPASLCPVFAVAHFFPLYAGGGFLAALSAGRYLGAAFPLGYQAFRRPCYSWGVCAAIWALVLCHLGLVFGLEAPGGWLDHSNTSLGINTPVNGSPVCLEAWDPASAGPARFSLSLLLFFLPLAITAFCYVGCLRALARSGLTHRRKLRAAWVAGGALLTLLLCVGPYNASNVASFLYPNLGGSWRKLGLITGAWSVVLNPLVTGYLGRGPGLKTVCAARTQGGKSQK

EDG3 = EDG3 (Homo sapiens, UniProt Q99500); settings: read-out: RC50 (the source's name)
EDG3, sequence (Q99500 whole entry): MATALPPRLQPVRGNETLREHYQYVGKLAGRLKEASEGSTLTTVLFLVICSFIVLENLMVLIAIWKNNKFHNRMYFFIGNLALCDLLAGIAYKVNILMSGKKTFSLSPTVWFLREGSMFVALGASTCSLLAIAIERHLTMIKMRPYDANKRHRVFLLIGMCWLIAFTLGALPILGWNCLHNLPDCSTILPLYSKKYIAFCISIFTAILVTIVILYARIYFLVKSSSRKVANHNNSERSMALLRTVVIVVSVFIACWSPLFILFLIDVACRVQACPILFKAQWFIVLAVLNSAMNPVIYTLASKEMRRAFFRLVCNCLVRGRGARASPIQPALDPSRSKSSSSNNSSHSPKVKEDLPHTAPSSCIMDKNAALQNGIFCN

EDG6 = EDG6 (Homo sapiens, UniProt O95977); settings: read-out: RC50 (the source's name)
EDG6, sequence (O95977 whole entry): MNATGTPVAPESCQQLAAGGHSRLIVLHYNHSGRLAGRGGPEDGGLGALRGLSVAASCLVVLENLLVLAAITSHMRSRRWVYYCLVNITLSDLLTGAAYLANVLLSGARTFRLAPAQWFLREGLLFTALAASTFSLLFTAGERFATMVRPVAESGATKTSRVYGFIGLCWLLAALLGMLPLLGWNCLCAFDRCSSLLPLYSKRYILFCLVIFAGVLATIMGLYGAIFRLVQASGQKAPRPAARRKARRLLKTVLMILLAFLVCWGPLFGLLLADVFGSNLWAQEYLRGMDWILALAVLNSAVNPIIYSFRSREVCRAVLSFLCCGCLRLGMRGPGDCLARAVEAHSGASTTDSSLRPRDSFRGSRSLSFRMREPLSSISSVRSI

EDG1 = EDG1 (Homo sapiens, UniProt P21453); settings: read-out: RC50 (the source's name)
EDG1, sequence (P21453 whole entry): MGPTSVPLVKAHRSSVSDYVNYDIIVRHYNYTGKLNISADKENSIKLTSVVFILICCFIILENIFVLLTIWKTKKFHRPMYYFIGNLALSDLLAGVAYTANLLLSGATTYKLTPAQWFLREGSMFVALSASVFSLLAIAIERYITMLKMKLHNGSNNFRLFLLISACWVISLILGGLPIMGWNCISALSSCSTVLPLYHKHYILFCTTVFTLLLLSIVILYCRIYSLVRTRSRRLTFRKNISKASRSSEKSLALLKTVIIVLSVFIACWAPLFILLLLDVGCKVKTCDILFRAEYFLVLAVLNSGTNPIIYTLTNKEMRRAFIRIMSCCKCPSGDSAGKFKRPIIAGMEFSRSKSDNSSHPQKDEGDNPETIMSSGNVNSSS

CXCR2 = biological target: T1, CXCR2 (Homo sapiens, UniProt P25025); settings: read-out: RC50 (the source's name)
T1 sequence (P25025 1-360): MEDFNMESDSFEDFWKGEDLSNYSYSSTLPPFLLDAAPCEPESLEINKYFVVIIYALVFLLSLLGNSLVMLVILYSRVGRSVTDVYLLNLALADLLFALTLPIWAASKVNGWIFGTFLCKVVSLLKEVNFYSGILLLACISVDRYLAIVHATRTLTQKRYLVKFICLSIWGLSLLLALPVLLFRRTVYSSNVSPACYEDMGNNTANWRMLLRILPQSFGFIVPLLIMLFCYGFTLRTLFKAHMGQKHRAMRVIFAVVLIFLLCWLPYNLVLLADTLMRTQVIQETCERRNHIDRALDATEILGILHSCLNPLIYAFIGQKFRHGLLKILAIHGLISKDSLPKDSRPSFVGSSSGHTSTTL

CXCR1 = biological target: T2, CXCR1 (Homo sapiens, UniProt P25024); settings: read-out: RC50 (the source's name)
T2 sequence (P25024 1-350): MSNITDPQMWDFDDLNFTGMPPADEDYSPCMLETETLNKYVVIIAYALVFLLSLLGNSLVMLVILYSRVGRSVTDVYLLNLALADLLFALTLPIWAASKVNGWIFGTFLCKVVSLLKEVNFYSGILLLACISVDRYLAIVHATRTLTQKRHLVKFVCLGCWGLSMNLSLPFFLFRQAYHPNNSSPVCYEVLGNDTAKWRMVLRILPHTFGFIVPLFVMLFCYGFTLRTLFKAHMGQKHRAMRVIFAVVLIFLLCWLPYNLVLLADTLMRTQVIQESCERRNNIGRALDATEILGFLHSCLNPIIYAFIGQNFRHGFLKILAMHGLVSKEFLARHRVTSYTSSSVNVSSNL

CXCR3 = biological target: T3, CXCR3 (Homo sapiens, UniProt P49682); settings: read-out: RC50 (the source's name)
T3 sequence (P49682 1-368): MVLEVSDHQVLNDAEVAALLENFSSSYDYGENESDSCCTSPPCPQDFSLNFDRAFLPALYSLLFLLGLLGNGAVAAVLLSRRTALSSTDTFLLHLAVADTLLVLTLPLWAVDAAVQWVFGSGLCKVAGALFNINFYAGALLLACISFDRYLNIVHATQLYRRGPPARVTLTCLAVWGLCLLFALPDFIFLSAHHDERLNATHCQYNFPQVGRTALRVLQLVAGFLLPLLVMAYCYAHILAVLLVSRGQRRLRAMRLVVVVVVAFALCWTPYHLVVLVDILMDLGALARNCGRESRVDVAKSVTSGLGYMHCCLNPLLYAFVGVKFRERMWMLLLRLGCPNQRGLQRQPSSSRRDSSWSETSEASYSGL

CXCR5 = biological target: T4, CXCR5 (Homo sapiens, UniProt P32302); settings: read-out: RC50 (the source's name)
T4 sequence (P32302 1-372): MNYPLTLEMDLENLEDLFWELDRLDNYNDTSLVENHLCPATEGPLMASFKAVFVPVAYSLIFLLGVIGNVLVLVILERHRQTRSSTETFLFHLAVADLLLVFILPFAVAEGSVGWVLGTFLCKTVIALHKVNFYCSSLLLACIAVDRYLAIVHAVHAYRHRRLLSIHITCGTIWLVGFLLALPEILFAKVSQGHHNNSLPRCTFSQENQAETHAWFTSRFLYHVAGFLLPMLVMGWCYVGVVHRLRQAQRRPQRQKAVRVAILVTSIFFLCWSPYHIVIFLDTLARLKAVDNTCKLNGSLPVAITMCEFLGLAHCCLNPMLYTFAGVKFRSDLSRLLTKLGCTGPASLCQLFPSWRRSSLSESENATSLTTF

GPR1 = biological target: T5, GPR1 (Homo sapiens, UniProt P46091); settings: read-out: RC50 (the source's name)
T5 sequence (P46091 1-355): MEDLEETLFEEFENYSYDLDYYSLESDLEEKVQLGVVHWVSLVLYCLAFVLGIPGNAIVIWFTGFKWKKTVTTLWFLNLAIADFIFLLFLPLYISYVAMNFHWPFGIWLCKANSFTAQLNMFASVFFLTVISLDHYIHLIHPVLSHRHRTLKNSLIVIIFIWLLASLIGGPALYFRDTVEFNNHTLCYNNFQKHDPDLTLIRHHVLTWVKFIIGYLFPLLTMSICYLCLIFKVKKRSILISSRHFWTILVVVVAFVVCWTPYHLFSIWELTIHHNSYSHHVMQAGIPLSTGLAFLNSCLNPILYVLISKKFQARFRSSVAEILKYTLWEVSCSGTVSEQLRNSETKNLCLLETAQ

GPR103 = GPR103 (Homo sapiens, UniProt Q96P65); settings: read-out: RC50 (the source's name)
GPR103, sequence (Q96P65 whole entry): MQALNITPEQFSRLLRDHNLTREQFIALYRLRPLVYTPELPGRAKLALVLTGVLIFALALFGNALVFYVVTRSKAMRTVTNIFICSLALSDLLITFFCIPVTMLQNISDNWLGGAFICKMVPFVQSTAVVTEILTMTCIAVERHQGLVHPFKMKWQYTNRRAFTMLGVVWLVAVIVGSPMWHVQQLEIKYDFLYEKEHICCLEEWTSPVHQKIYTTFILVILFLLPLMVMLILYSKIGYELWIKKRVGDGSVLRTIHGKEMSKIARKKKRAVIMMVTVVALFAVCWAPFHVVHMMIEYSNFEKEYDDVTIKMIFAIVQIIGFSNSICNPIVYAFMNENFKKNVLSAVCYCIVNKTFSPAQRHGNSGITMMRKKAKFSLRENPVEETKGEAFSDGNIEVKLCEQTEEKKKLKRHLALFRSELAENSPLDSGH

EBI2, sequence (P32249 whole entry): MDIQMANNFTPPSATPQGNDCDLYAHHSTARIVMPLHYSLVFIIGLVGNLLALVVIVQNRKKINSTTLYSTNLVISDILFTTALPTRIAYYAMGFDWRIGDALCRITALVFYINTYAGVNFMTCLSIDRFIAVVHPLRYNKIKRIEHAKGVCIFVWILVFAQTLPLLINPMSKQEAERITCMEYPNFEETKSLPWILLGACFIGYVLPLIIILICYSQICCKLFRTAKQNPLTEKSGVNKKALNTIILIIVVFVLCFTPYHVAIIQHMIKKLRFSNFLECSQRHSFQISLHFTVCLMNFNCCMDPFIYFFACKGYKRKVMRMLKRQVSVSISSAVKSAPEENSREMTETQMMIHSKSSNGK

C[C@H](CCCC(C)(C)O)[C@H]1CC[C@H]2[C@@H]3[C@H](O)C=C4C[C@@H](O)CC[C@]4(C)[C@H]3CC[C@]12C [7a,25-Dihydroxycholesterol]
EC50 (EBI2): 0.00363 µM

O=C(O)CCc1ccc(NCc2cccc(Oc3ccccc3)c2)cc1 [GW9508]
EC50 (FFAR1): 0.959 µM

CCCCCCCCCCCCC/C=C/[C@@H](O)[C@@H](N)COP(=O)(O)O [S-1-P]
EC50 (EDG3): 0.0106 µM
EC50 (EDG6): 0.0305 µM
EC50 (EDG1): 0.019 µM

CXCL8: control agonist
EC50 (CXCR2): 0.000304 µM
EC50 (CXCR1): 0.0028 µM

CXCL11: control agonist
EC50 (CXCR3): 0.012 µM

CXCL13: control agonist
EC50 (CXCR5): 0.021 µM

Chemerin: control agonist
EC50 (GPR1): 0.00226 µM

TSGPLGNLAEELNGYSRKKGGFSFRF-NH2 (C-terminus assumed) [QRFP-26]
EC50 (GPR103): 0.01 µM
